Like-named read-outs stand apart in the source and are kept apart here.
Key:
[1] = target: GSK3α (GST-full length GSK3α) (Homo sapiens (Human), UniProt P49840); test: GSK3α TR-FRET kinase assay; format: biochemical
Method in brief: (§1)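 Compound preincubated 30 min, then 1 nM GST-full-length GSK3α or GSK3b run 100 min at ambient temperature with 200 nM biotinylated, S645-prephosphorylated glycogen synthase 631-650 peptide in Tris pH 7.5, MgCl2, DTT, BSA, 1% DMSO. ATP 4 μM (α) or 2 μM (β), or 1 mM. EDTA-quenched; Tb-anti-pSer641/streptavidin-d2 TR-FRET 665/615 ratio gave IC50.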

[2] = target: GSK3b (GST-full length GSK3b) (Homo sapiens (Human), UniProt P49841); test: GSK3b TR-FRET kinase assay; format: biochemical
Method in brief: as §1

[3] = 1 nM GSK3α, 4 μM ATP, 30 minute preincubation, Table 16, read-out: GSK3-A TR-FRET BIOCHEMICAL (TR-FRET)
[4] = 1 nM GSK3b, 2 μM ATP, 30 minute preincubation, Table 16, read-out: GSK3-B TR-FRET BIOCHEMICAL (TR-FRET)
[5] = 1 nM GSK3α, 4 μM ATP, 30 minute preincubation, Table 16, read-out: GSK3-A TR-FRET BIOCHEMICAL (TR-FRET), IC50
[6] = 1 nM GSK3b, 2 μM ATP, 30 minute preincubation, Table 16, read-out: GSK3-B TR-FRET BIOCHEMICAL (TR-FRET), IC50
[7] = 1 nM GSK3α, 4 μM ATP, 30 minute preincubation, read-out: GSK3-A TR-FRET BIOCHEMICAL (TR-FRET), IC50
[8] = 1 nM GSK3b, 2 μM ATP, 30 minute preincubation, read-out: GSK3-B TR-FRET BIOCHEMICAL (TR-FRET), IC50
[9] = read-out: GSK3-A (TR-FRET 1 mM ATP), GMean, IC50, 1 mM ATP, geometric mean
[10] = read-out: GSK3-B (TR-FRET 1 mM ATP), GMean, IC50, 1 mM ATP, geometric mean

Sequence of GSK3α (GST-full length GSK3α) (P49840 whole entry): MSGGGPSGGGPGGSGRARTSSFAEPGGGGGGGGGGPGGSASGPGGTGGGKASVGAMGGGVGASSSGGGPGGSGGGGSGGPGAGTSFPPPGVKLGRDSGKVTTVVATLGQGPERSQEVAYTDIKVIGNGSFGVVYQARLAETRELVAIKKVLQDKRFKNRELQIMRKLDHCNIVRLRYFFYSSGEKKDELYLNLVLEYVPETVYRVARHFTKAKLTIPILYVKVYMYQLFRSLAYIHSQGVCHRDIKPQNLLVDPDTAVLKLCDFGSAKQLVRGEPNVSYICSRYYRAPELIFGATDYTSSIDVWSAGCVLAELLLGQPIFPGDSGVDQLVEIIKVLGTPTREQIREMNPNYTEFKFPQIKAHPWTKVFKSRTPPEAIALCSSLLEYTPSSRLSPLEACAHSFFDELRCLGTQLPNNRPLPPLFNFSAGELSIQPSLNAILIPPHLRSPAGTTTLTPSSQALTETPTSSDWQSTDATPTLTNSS
Sequence of GSK3b (GST-full length GSK3b) (P49841 whole entry): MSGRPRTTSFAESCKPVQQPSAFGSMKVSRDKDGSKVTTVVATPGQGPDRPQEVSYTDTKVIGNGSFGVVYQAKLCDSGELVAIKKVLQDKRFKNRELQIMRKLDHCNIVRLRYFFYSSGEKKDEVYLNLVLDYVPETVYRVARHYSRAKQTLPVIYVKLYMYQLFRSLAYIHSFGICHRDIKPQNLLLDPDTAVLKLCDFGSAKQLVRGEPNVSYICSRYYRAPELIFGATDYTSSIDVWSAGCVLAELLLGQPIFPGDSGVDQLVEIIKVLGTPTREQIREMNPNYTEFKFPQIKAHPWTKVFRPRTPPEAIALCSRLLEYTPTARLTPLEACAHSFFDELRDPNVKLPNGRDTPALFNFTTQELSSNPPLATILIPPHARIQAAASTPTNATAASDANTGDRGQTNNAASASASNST

| Compound | IC50 [1, 3] | IC50 [2, 4] | IC50 [1, 5] | IC50 [2, 6] | other results |
| --- | --- | --- | --- | --- | --- |
| CCC1(c2cccc(C(F)(F)F)c2)C2=C(CNC2=O)Nc2n[nH]cc21 (stereo not shown) [Compound 917158] | 100 to 1000 nM | 1000 to 5000 nM | – | – | – |
| CCC1(c2cccc(C(F)(F)F)c2)C2=C(CN(Cc3ccccc3)C2=O)Nc2n[nH]cc21 (stereo not shown) [Compound 917159] | ≤ 100 nM | 100 to 1000 nM | – | – | – |
| C[C@@H]1C[C@]2(CCN1S(=O)(=O)c1ccn(C)n1)C1=C(CC(C)(C)CC1=O)Nc1n[nH]cc12 [Compound 917160] | 100 to 1000 nM | 100 to 1000 nM | – | – | – |
| C[C@@H]1C[C@@]2(CCN1S(=O)(=O)c1ccn(C)n1)C1=C(CC(C)(C)CC1=O)Nc1n[nH]cc12 [Compound 917161] | ≤ 100 nM | ≤ 100 nM | – | – | – |
| CC1(C)CC(=O)C2=C(C1)Nc1n[nH]cc1C21COC2(CN(C(=O)c3ccccc3)C2)C1 (stereo not shown) [Compound 917231] | – | – | – | – | IC50 [1, 7]: ≤ 100 nM; IC50 [2, 8]: ≤ 100 nM |
| CC1(C)CC(=O)C2=C(C1)Nc1n[nH]cc1C21COC2(CN(C(=O)C3CCCC3)C2)C1 (stereo not shown) [Compound 917232] | – | – | – | – | IC50 [1, 7]: ≤ 100 nM; IC50 [2, 8]: ≤ 100 nM |
| CC[C@@]1(c2cccc(C(F)(F)F)c2)C2=C(CCN(C)C2=O)Nc2n[nH]cc21 [Compound 917282] | – | – | – | – | IC50 [1, 7]: ≤ 100 nM; IC50 [2, 8]: 100 to 1000 nM |
| CC[C@]1(c2cccc(C(F)(F)F)c2)C2=C(CCN(C)C2=O)Nc2n[nH]cc21 [Compound 917283] | – | – | – | – | IC50 [1, 7]: > 5000 nM; IC50 [2, 8]: > 5000 nM |
| CCC1(c2cccc(C(F)(F)F)c2)C2=C(CC(c3ccccc3)NC2=O)Nc2n[nH]cc21 (stereo not shown) [Compound 917284] | – | – | – | – | IC50 [1, 7]: 100 to 1000 nM; IC50 [2, 8]: 1000 to 5000 nM |
| CCC1(c2cccc(C(F)(F)F)c2)C2=C(CN(C)C2=O)Nc2n[nH]cc21 (stereo not shown) [Compound 917294] | 100 to 1000 nM | 1000 to 5000 nM | – | – | – |
| CCC1(c2cccc(C(F)(F)F)c2)C2=C(Nc3n[nH]cc31)C(C)NC2=O (stereo not shown) [Compound 917295] | 100 to 1000 nM | 1000 to 5000 nM | – | – | – |
| CC[C@@]1(c2cccc(C(F)(F)F)c2)C2=C(Nc3n[nH]cc31)C(C)(C)N(C)C2=O [Compound 918251] | > 5000 nM | > 5000 nM | – | – | – |
| COC(=O)C1CCC2(CC1)C1=C(CC(C)(C)CC1=O)Nc1n[nH]cc12 (stereo not shown) [Compound 918270] | 100 to 1000 nM | 100 to 1000 nM | – | – | – |
| CC1(C)CC(=O)C2=C(C1)Nc1n[nH]cc1C21CN(S(=O)(=O)C2CCCCC2)C1 [Compound 918275] | ≤ 100 nM | ≤ 100 nM | – | – | – |
| COC(=O)C1CCC2(CC1)C1=C(CC(C)(C)CC1=O)Nc1n[nH]cc12 (stereo not shown) [Compound 918277] | ≤ 100 nM | 100 to 1000 nM | – | – | – |
| CC1(C)CC2=C(C(=O)[C@H]1F)[C@]1(CC[C@H](C(F)(F)F)CC1)c1c[nH]nc1N2 [Compound 918282] | ≤ 100 nM | ≤ 100 nM | – | – | – |
| CC1(C)CC2=C(C(=O)[C@@H]1F)[C@]1(CC[C@H](C(F)(F)F)CC1)c1c[nH]nc1N2 [Compound 918283] | ≤ 100 nM | ≤ 100 nM | – | – | – |
| CC1(C)CC(=O)C2=C(Nc3n[nH]cc3[C@]23CC[C@@H](C(F)(F)F)CC3)[C@@H]1F [Compound 918284] | ≤ 100 nM | ≤ 100 nM | – | – | – |
| CC1(C)CC(=O)C2=C(Nc3n[nH]cc3[C@]23CC[C@@H](C(F)(F)F)CC3)[C@H]1F [Compound 918285] | ≤ 100 nM | 100 to 1000 nM | – | – | IC50 ([1]; GSK3-A (TR-FRET 1 mM ATP), GMean, IC50, 1 mM ATP, geometric mean): 1000 to 5000 nM; IC50 ([2]; GSK3-B (TR-FRET 1 mM ATP), GMean, IC50, 1 mM ATP, geometric mean): > 5000 nM |
| C[C@@H]1C[C@]2(CCN1S(C)(=O)=O)C1=C(CC(C)(C)CC1=O)Nc1n[nH]cc12 [Compound 918315] | 100 to 1000 nM | 100 to 1000 nM | – | – | – |
| C[C@@H]1C[C@@]2(CCN1S(C)(=O)=O)C1=C(CC(C)(C)CC1=O)Nc1n[nH]cc12 [Compound 918316] | ≤ 100 nM | 100 to 1000 nM | – | – | – |
| CC1(C)CC(=O)C2=C(C1)Nc1n[nH]cc1[C@]21CCOC(C)(C)C1 [Compound 924298] | – | – | 1000 to 5000 nM | 1000 to 5000 nM | – |
| CC1(C)CC(=O)C2=C(C1)Nc1n[nH]cc1[C@@]21CCOC(C)(C)C1 [Compound 924299] | 100 to 1000 nM | 100 to 1000 nM | – | – | – |
| CC1(C)CC(=O)C2=C(C1)Nc1n[nH]cc1[C@@]21CCOC2(CCOCC2)C1 [Compound 924306] | – | – | – | – | IC50 [1, 7]: 100 to 1000 nM; IC50 [2, 8]: 100 to 1000 nM |
| C[C@H]1C[C@]2(CCO1)C1=C(CC(C)(C)CC1=O)Nc1n[nH]cc12 [Compound 924307] | 100 to 1000 nM | 100 to 1000 nM | – | – | – |

Further lines, with some results ahead:

| IC50 [1, 3] | IC50 [2, 4] | IC50 [1, 5] | IC50 [2, 6] | Compound | other results |
| --- | --- | --- | --- | --- | --- |
| – | – | > 5000 nM | > 5000 nM | CC[C@]1(c2cccc(N3CCCC[C@H]3C)c2)C2=C(CC(C)(C)CC2=O)Nc2n[nH]cc21 [Compound 917210] | – |
| – | – | ≤ 100 nM | 100 to 1000 nM | CCC1(c2cccc(Oc3cncnc3)c2)C2=C(CC(C)(C)CC2=O)Nc2n[nH]cc21 (stereo not shown) [Compound 917212] | – |
| – | – | 100 to 1000 nM | 100 to 1000 nM | CC1(C)CC(=O)C2=C(C1)Nc1n[nH]cc1C21Cc2ccccc21 (stereo not shown) [Compound 917226] | – |
| – | – | 100 to 1000 nM | 1000 to 5000 nM | CCC1(c2cccc(-c3ccnc(C)c3)c2)C2=C(CC(C)(C)CC2=O)Nc2n[nH]c(C(F)(F)F)c21 (stereo not shown) [Compound 917289] | IC50 [1, 9]: > 5000 nM; IC50 [2, 10]: > 5000 nM |
| – | – | 100 to 1000 nM | 100 to 1000 nM | CCC1(c2cccc(-c3ccncc3)c2)C2=C(CC(C)(C)CC2=O)Nc2n[nH]c(C(F)(F)F)c21 (stereo not shown) [Compound 917292] | IC50 [1, 9]: > 5000 nM; IC50 [2, 10]: > 5000 nM |
| – | – | ≤ 100 nM | ≤ 100 nM | CCC1(c2cccc(S(=O)(=O)CCOC)c2)C2=C(CC(C)(C)CC2=O)Nc2n[nH]cc21 (stereo not shown) [Compound 918271] | – |
| – | – | 100 to 1000 nM | 100 to 1000 nM | CCC1(c2cccc(N(C)c3ccc(C)nc3)c2)C2=C(CC(C)(C)CC2=O)Nc2n[nH]cc21 (stereo not shown) [Compound 918272] | – |
| – | – | ≤ 100 nM | ≤ 100 nM | CCC1(c2cccc(S(=O)(=O)C3CCCCC3)c2)C2=C(CC(C)(C)CC2=O)Nc2n[nH]cc21 (stereo not shown) [Compound 918273] | – |
| – | – | ≤ 100 nM | 100 to 1000 nM | CCC1(c2cccc(N(C)c3cccc(F)n3)c2)C2=C(CC(C)(C)CC2=O)Nc2n[nH]cc21 (stereo not shown) [Compound 918274] | – |
| ≤ 100 nM | ≤ 100 nM | – | – | COc1cccc(S(=O)(=O)N2CC3(C2)C2=C(CC(C)(C)CC2=O)Nc2n[nH]cc23)c1 [Compound 918276] | – |
| ≤ 100 nM | ≤ 100 nM | – | – | CC1(C)CC(=O)C2=C(C1)Nc1n[nH]cc1C21CN(S(=O)(=O)c2cccc(F)c2)C1 [Compound 918278] | – |
| – | – | ≤ 100 nM | ≤ 100 nM | CCC1(c2cccc(N3CCOc4ncccc43)c2)C2=C(CC(C)(C)CC2=O)Nc2n[nH]cc21 (stereo not shown) [Compound 918279] | – |
| – | – | ≤ 100 nM | ≤ 100 nM | CCC1(c2cccc(N3CCOc4ccccc43)c2)C2=C(CC(C)(C)CC2=O)Nc2n[nH]cc21 (stereo not shown) [Compound 918280] | – |
| – | – | ≤ 100 nM | 100 to 1000 nM | CCC1(c2cccc(-c3ccnc(C)c3F)c2)C2=C(CC(C)(C)CC2=O)Nc2n[nH]cc21 (stereo not shown) [Compound 918281] | – |
| – | – | ≤ 100 nM | ≤ 100 nM | CCC1(c2cccc(N3CCCC3C)c2)C2=C(CC(C)(C)CC2=O)Nc2n[nH]cc21 (stereo not shown) [Compound 918321] | – |
| – | – | > 5000 nM | > 5000 nM | CC[C@]1(c2cccc(N3CCC[C@H]3C)c2)C2=C(CC(C)(C)CC2=O)Nc2n[nH]cc21 [Compound 918322] | – |
| – | – | 100 to 1000 nM | 100 to 1000 nM | CCC1(c2cccc(N3CC(C)C(C)C3)c2)C2=C(CC(C)(C)CC2=O)Nc2n[nH]cc21 (stereo not shown) [Compound 918326] | – |
| – | – | 1000 to 5000 nM | > 5000 nM | CCC1(c2cccc(N3CC(C)C(C)C3)c2)C2=C(CC(C)(C)CC2=O)Nc2n[nH]cc21 (stereo not shown) [Compound 918327] | – |
| – | – | ≤ 100 nM | ≤ 100 nM | CCN(c1cccc(C2(CC)C3=C(CC(C)(C)CC3=O)Nc3n[nH]cc32)c1)c1ncccn1 (stereo not shown) [Compound 919840] | – |

— patent publication US20250313563A1, “GLYCOGEN SYNTHASE KINASE 3 INHIBITORS AND USES THEREOF” (The Broad Institute, Inc., priority 2022, published 2025)
